Here are results for 29 compounds from ChEMBL document CHEMBL3272306, “Synthesis and antimicrobial activity of some novel heterocycles. Azolo-as-triazines” (1976).

Values after ≈ are worked out from the molar mass of the structure shown. Some results are limits rather than exact numbers.

Holding throughout (type): functional
The test system of experiment [1] is Pseudomonas aeruginosa. Briefly: Antibacterial activity against clinical isolate Pseudomonas aeruginosa assessed as prevention of visible growth at 25 degC after 24 hrs by broth dilution assay. (In general: Broth dilution looks for growth in wells or tubes with falling amounts of substance.)
The subject of experiment [2] is Escherichia coli. Briefly: Antibacterial activity against clinical isolate Escherichia coli assessed as prevention of visible growth at 25 degC after 24 hrs by broth dilution assay.
The test system of experiment [3] is Staphylococcus aureus. Put plainly: Antibacterial activity against clinical isolate Staphylococcus aureus assessed as prevention of visible growth at 25 degC after 24 hrs by broth dilution assay.
The subject of experiment [4] is Trichophyton mentagrophytes. Put plainly: Antifungal activity against clinical isolate Trichophyton mentagrophytes assessed as prevention of visible growth at 30 degC after 48 hrs by broth dilution assay.
For experiment [5], the system named is Candida albicans. Briefly: Antifungal activity against clinical isolate Candida albicans assessed as prevention of visible growth at 25 degC after 24 hrs by broth dilution assay.

Turning to `CCOC(=O)c1nnc2ccnn2c1N`, the MIC (in general, the smallest concentration in the dilution series that meets the test's criterion for growth inhibition) in experiment [1] is 160 µM (≈ 33.2 µg/mL); in experiment [2] it was more than 400 µM.
Regarding `CCCC(=O)c1nnc2c(C(N)=O)nnn2c1CCC`, the MIC in experiment [3] was 400 µM (≈ 111 µg/mL); in experiment [2] it was more than 400 µM.
Consider `CC(=O)c1nnc2ccnn2c1C`, for which the MIC in experiment [4], in experiment [3], in experiment [1], in experiment [2] and in experiment [5] was more than 400 µM in each case.
In the case of `CCCC(=O)c1nnc2c(-c3ccc(Cl)cc3)cnn2c1CCC`, the MIC in experiment [1] is 400 µM (≈ 137 µg/mL); in experiment [2], more than 400 µM.
Consider `CCCC(=O)c1nnc2c(C(=O)OCC)cnn2c1CCC`, for which the MIC in experiment [2] was more than 400 µM; in experiment [5] it was 400 µM (≈ 122 µg/mL).
With `CCCC(=O)c1nnc2c(C(N)=O)cnn2c1CCC`, the MIC in experiment [4], in experiment [3], in experiment [1], in experiment [2] and in experiment [5] was more than 400 µM in each case.
Consider `CCC(=O)c1nnc2c(C(N)=O)cnn2c1CC`, for which the MIC in experiment [4], in experiment [3], in experiment [1], in experiment [2] and in experiment [5] was more than 400 µM each time.
With `CCC(=O)c1nnc2ccnn2c1CC`, the MIC in experiment [4], in experiment [3], in experiment [1], in experiment [2] and in experiment [5] was more than 400 µM throughout.
Take `CCC(=O)c1nnc2c(Br)cnn2c1CC`: the MIC in experiment [4] was 160 µM (≈ 45.3 µg/mL); in experiment [2], more than 400 µM.
As to `CCC(=O)c1nnc2cc(-c3ccc(OC)cc3)nn2c1CC`, the minimum inhibitory concentration (MIC) in experiment [4], in experiment [3], in experiment [1], in experiment [2] and in experiment [5] was more than 400 µM each time.
Turning to `N#Cc1nnc2ccnn2c1N`, the MIC in experiment [4], in experiment [3], in experiment [1], in experiment [2] and in experiment [5] was more than 400 µM throughout.
As for `CCCc1c(C(=O)OCC)nnc2ccnn12`, the minimal inhibitory concentration (MIC) in experiment [4], in experiment [3], in experiment [1], in experiment [2] and in experiment [5] was more than 400 µM throughout.
`CCCc1cnnc2ccnn12`: the MIC in experiment [4], in experiment [3], in experiment [1], in experiment [2] and in experiment [5] was more than 400 µM throughout.
In the case of `Cc1nnc2ccnn2c1C`, the MIC in experiment [4], in experiment [3], in experiment [1], in experiment [2] and in experiment [5] was more than 400 µM each time.
As for `CCCc1cnnc2c(Br)cnn12`, the MIC in experiment [4], in experiment [3], in experiment [1], in experiment [2] and in experiment [5] was more than 400 µM in each case.
With `Cc1cnnc2ccnn12`, the MIC in experiment [4], in experiment [3], in experiment [1], in experiment [2] and in experiment [5] was more than 400 µM each time.
As for `Cc1cnnc2c(Br)cnn12`, the MIC in experiment [4], in experiment [3], in experiment [1], in experiment [2] and in experiment [5] was more than 400 µM throughout.
As to `Cc1nnc2c(Br)cnn2c1C`, the MIC in experiment [4], in experiment [3], in experiment [1], in experiment [2] and in experiment [5] was more than 400 µM in each case.
For the compound `CCCC(=O)c1nnc2nc(SCc3ccccc3)nn2c1CCC`, the minimum inhibitory concentration (MIC) is 400 µM (≈ 142 µg/mL) in experiment [3] and more than 400 µM in experiment [2].
Consider `CCCC(=O)c1nnc2nc(S(=O)(=O)Cc3ccccc3)nn2c1CCC`, for which the MIC in experiment [4], in experiment [3], in experiment [1], in experiment [2] and in experiment [5] was more than 400 µM in each case.
For `CCCC(=O)c1nnc2ncnn2c1CCC`, the MIC in experiment [4], in experiment [3], in experiment [1], in experiment [2] and in experiment [5] was more than 400 µM in each case.
Turning to `CCCC(=O)c1nnc2nc(NC)nn2c1CCC`, the MIC in experiment [4], in experiment [3], in experiment [1], in experiment [2] and in experiment [5] was more than 400 µM each time.
Turning to `CCOC(=O)c1nnc2nccn2c1N`, the MIC in experiment [4], in experiment [3], in experiment [1], in experiment [2] and in experiment [5] was more than 400 µM each time.
Regarding `CCCC(=O)c1nnc2nccn2c1CCC`, the MIC in experiment [4], in experiment [3], in experiment [1], in experiment [2] and in experiment [5] was more than 400 µM throughout.
On to `CCC(=O)c1nnc2nccn2c1CC`, for which the MIC in experiment [4], in experiment [3], in experiment [1], in experiment [2] and in experiment [5] was more than 400 µM throughout.
Turning to `Cc1nnc2nccn2c1C`, the MIC in experiment [4], in experiment [3], in experiment [1], in experiment [2] and in experiment [5] was more than 400 µM each time.
On to `CCCC(=O)c1nnc2c(C(N)=O)ncn2c1CCC`, for which the MIC in experiment [4], in experiment [3], in experiment [1], in experiment [2] and in experiment [5] was more than 400 µM each time.
As for `CCC(=O)c1nnc2c(C(N)=O)ncn2c1CC`, the MIC in experiment [4], in experiment [3], in experiment [1], in experiment [2] and in experiment [5] was more than 400 µM in each case.
Consider `CC(=O)c1nnc2c(C(N)=O)ncn2c1C`, for which the MIC in experiment [4], in experiment [3], in experiment [1], in experiment [2] and in experiment [5] was more than 400 µM in each case.
